Laboratory results from publication PMC9352027, “Targeting lipid biosynthesis pathways for hepatitis B virus cure” (PLoS ONE, 2022).

Legend:
[1] = system: HBsAg secretion in HBV-infected HepG2-NTCP cells; assay: microbe, parasite or virus in culture; type: cell-based, Hepatitis B virus genotype D (AD38); conditions: HBV-infected HepG2-NTCP cells
Procedure: (§1) Production of wild-type HBV virions from HepAD38 cells was performed as previously described. HepG2-NTCP cells were bulk plated on collagen coated flasks at a density of 6x10^6 cells/ T175 flask. Following a 3-day incubation at 37°C, cells were infected with genotype D (AD38) virus at […] in the presence of 4% PEG8000 and 2.5% DMSO. HepG2-NTCP cells were washed 3 times with OPTI-MEM and maintained in Dulbecco’s modified Eagle’s medium (DMEM) supplemented with 2% FBS and 2.5% DMSO for the following 4 days. HBV-infected HepG2-NTCP cells were trypsinized, resuspended in DMEM supplemented with 2% FBS and 1% DMSO, and seeded onto serially diluted small molecule inhibitors at a 0.5% final DMSO concentration (S1 Table) in 384-well collagen coated plates at a density of 20,000 cells/well for 3 additional days.
(§2) Cell culture supernatant (3 μL) was transferred to two 1536-well plates and HBsAg and HBeAg levels subsequently measured by HTRF (Cisbio). HBsAg was measured using Terbium conjugated (XTL-17) and D2 receptor conjugated (XTL19) anti-HBsAg antibodies, while HBeAg was measured using Terbium conjugated (GWB-F19420, Genway Biotech) and D2 receptor conjugated (GWB-24DEF, Genway Biotech) anti-HBeAg antibodies. […] was measured using an Envision plate reader at emissions of 665 nm and 615 nm. The ratio of 665/615 was used to plot compound dose response curves and EC50 values were calculated from the fit of the dose−response curves to a four-parameter equation.
(§3) (A) Schematic overview of the pathways involved in lipid biosynthesis, such as DNL, TG esterification and cholesterol biosynthesis. […] (B-D) HepG2-NTCP cells infected with HBV for three days were treated with selected compounds in an eight-point dose response. After three days of treatment, extracellular HBsAg and HBeAg levels as well as cell viability were measured.

[2] = system: HBeAg in HBV-infected HepG2-NTCP cells; assay: microbe, parasite or virus in culture; type: cell-based, Hepatitis B virus genotype D (AD38); conditions: HBV-infected HepG2-NTCP cells, three days of treatment, extracellular; read-out: HBeAg, EC50
Procedure: as §1, §2, §3

[3] = system: triglyceride accumulation in HepG2 cells; design: method as in PMID 32376414, doi:10.1002/hep.31579; conditions: read-out: palmitic acid-induced triglyceride accumulation EC50; cited from earlier work
DNL in HepG2 cells = system: DNL in HepG2 cells; design: method as in PMID 32376414, doi:10.1002/hep.31579; conditions: cited from earlier work
HBV genotype C = assay: ACC inhibitor efficacy study in HBV-infected chimeric humanized mice: serum viral markers; type: in vivo, human liver-chimeric uPA/SCID mice; conditions: 10 mg/kg oral once daily for four weeks, throughout the study
Procedure: (§4) For the ACC inhibitor efficacy study, HBV-infected mice were randomized into two different treatment groups based on body weight, blood h-Alb, and serum HBV DNA concentrations. All mice had blood h-Alb levels above 12 mg/mL and serum HBV DNA levels above 2.5x10^7 copies/mL. Mice received an oral dose of 10 mg/kg ACC inhibitor or dosing vehicle (vehicle control) once daily for 29 days. ACC inhibitor was dosed in 0.5% sodium carboxymethylcellulose (medium viscosity), 1% w/v ethanol, 98.5% w/v 50 mM Tris buffer, pH 8 in reverse osmosis water (or equivalent). Terminal livers were collected, weighed, and separated into pieces that were flash frozen in liquid nitrogen or immersed in RNAlater solution (Life Technologies, Carlsbad, CA).
(§5) Whole blood h-Alb was determined using (BioMajestyTM Series JCA-BM6050, JEOL Ltd., Tokyo, Japan). Serum human alanine aminotransferase (h-ALT1) concentration was determined based on Enzyme-Linked ImmunoSorbent Assay (ELISA) developed by Institute of Immunology Co., Ltd. (Tokyo, Japan). […] Serum HBsAg and HBeAg concentration were determined by SRL, Inc. (Tokyo, Japan) based on Chemiluminescent Enzyme Immuno Assay (CLEIA) developed by Fujirebio. […] RNA was isolated from RNAlater®-immersed liver samples with RNeasy kit following manufacturer’s instructions (Qiagen). qRT-PCR on the targeted genes was evaluated by Taqman (Assay IDs Hs04984975_m1 (SREBF1), Hs01682761_m1 (SCD), Hs01005622_m1 (FASN), Hs01046047_m1 (ACACA) and normalized to GAPDH endogenous control (Assay ID 4310884E).
(§6) Using the same batch of human hepatocytes and HBV virus used for the metabolomic and RNAseq analyses, mice (n = 7/group) were dosed orally eight weeks post HBV infection with vehicle or 10 mg/kg ACC inhibitor once daily for four weeks. HBV viral markers (HBsAg, HBeAg, and HBV DNA) and liver toxicity markers (ALT, h-Alb) were measured weekly (Fig 5A). On-target activity was evaluated by monitoring changes in triglycerides and liver mRNA expression levels of genes in the targeted pathway (Fig 5A).

[4] = type: in vivo, human liver-chimeric uPA/SCID mice; conditions: 10 mg/kg oral once daily for four weeks
Procedure: All animal work was performed by PhoenixBio Co, Ltd (Higashi-Hiroshima City, Japan). Detailed observations of general condition and individual body weights were conducted once daily throughout the in-life phase. All animal protocols were performed in accordance with the Guide for the Care and Use of Laboratory Animals and approved by the Animal Welfare Committee of Phoenix Bio Co., Ltd. All mice were housed individually and maintained in accordance with the Animal Ethics Committee of PhoenixBio (resolution #2518 and 2552). All surgery was performed under isoflurane anesthesia, and all efforts were made to minimize suffering. On Day 17, Animal ID No. 107 (vehicle-treated) was found dead.

[5] = system: HBV-infected HepG2-NTCP cells; assay: Cell viability by CellTiter Glo; type: cell-based, human; conditions: three days of treatment
Procedure: as §1
Cells were analyzed for cell viability by addition of CellTiter Glo (Promega) to the assay plates and analyzed using an Envision plate reader (Perkin Elmer). CC50 values were calculated from the fit of the dose−response curves to a four-parameter equation. All CC50 values represent geometric mean values of a minimum of four determinations.
as §3

ACC = assay: On-target activity: serum and liver triglycerides and liver mRNA by qRT-PCR; type: in vivo, human liver-chimeric uPA/SCID mice; conditions: 10 mg/kg oral once daily, versus vehicle
Procedure: as §4
Whole blood h-Alb was determined using (BioMajestyTM Series JCA-BM6050, JEOL Ltd., Tokyo, Japan). Serum human alanine aminotransferase (h-ALT1) concentration was determined based on Enzyme-Linked ImmunoSorbent Assay (ELISA) developed by Institute of Immunology Co., Ltd. (Tokyo, Japan). The real-time detection PCR to measure the serum HBV DNA concentration was performed using the KUBIX HBV qPCR Kit (KUBIX Inc.) and CFX96 Touch™ Real-Time PCR Detection System. […] Serum HBsAg and HBeAg concentration were determined by SRL, Inc. (Tokyo, Japan) based on Chemiluminescent Enzyme Immuno Assay (CLEIA) developed by Fujirebio. Serum and intrahepatic triglycerides analysis were performed by Skylight Biotech Inc. (Akita, Japan). Terminal plasma and liver were collected 2-hours after ACC inhibitor dose for PK analysis which was performed by Charles River Laboratories (Wilmington, MA). RNA was isolated from RNAlater®-immersed liver samples with RNeasy kit following manufacturer’s instructions (Qiagen). qRT-PCR on the targeted genes was evaluated by Taqman (Assay IDs Hs04984975_m1 (SREBF1), Hs01682761_m1 (SCD), Hs01005622_m1 (FASN), Hs01046047_m1 (ACACA) and normalized to GAPDH endogenous control (Assay ID 4310884E).
as §6

[6] = two hours post dosing
Procedure: as §4, with “Terminal livers were collected, weighed, and separated into pieces that were flash frozen in liquid nitrogen or immersed in RNAlater solution (Life Technologies, Carlsbad, CA).” left out
as §5

[7] = system: HBsAg secretion in Hep3B cells; design: method as in PMID 14517078; conditions: depletion of cellular cholesterol; cited from earlier work

| SMILES | selectivity HBsAg versus HBeAg [1] | inhibition of HBsAg secretion ([1]; maximal (up to)) | EC50 ([1]; three days of treatment, extracellular, read-out: HBsAg, EC50) [nM] | EC50 [2] [nM] | EC50 [3] [nM] | EC50 (DNL in HepG2 cells) [nM] | reduction in serum HBV DNA levels (HBV genotype C) | reduction in serum HBeAg levels (HBV genotype C) | reduction in serum HBsAg levels (HBV genotype C) | toxicity based on body weight change, serum ALT, and h-Alb levels [4] | CC50 [5] [nM] | increase in serum triglycerides (ACC; day 17 of treatment) [%] | reduction in liver triglycerides (ACC; day 29 of treatment) [%] | liver mRNA expression level of ACACA (ACC; qRT-PCR) | liver mRNA expression level of FASN (ACC; qRT-PCR) | liver mRNA expression level of SCD (ACC; qRT-PCR) | liver mRNA expression level of SREBF1 (ACC; qRT-PCR) | Liver exposure over protein-adjusted EC50 (paEC50) ([6]; paEC50 based on HepG2-serum free-DNL assay) [fold] | Liver exposure ([6]; 10 mg/kg oral once daily, HBV-infected chimeric humanized mice) [nM] | HBsAg secretion [7] |
| --- | --- | --- | --- | --- | --- | --- | --- | --- | --- | --- | --- | --- | --- | --- | --- | --- | --- | --- | --- | --- |
| COc1ccccc1[C@H](Cn1c(=O)n(C(C)(C)C(=O)O)c(=O)c2c(C)c(-c3ncco3)sc21)O[C@H]1CC[C@@H](O)CC1 [ACC inhibitor, 2-(1-((R)-2-(((1s,4S)-4-hydroxycyclohexyl)oxy)-2-(2-methoxyphenyl)ethyl)-5-methyl-6-(oxazol-2-yl)-2,4-dioxo-1,4-dihydrothieno[2,3-d]pyrimidin-3(2H)-yl)-2-methylpropanoic acid] | inhibition of HBeAg but at a higher concentration than HBsAg | up to 80% | 29 | 9600 | 23 | 6.6 | no reduction | no reduction | no reduction | no evidence of toxicity | > 10000 | 30 | 40 | statistically significant increase | statistically significant increase | statistically significant increase | increased with ACC treatment albeit did not reach statistical significance | 4.5 | 740 |  |
| CC[C@H](C)C(=O)O[C@H]1C[C@@H](C)C=C2C=C[C@H](C)[C@H](CC[C@@H]3C[C@@H](O)CC(=O)O3)[C@H]21 [lovastatin] |  |  |  |  |  |  |  |  |  |  |  |  |  |  |  |  |  |  |  | significantly reduced |
